Measurements published in patent US20100240605A1, “NOVEL IMMUNOTHERAPY STRATEGY” (priority 2007, published 2010).
“Also recorded” adds a separate entry of the source. Read-outs that look alike come from different tables or passages of the source.

What was measured:
[1] = tested on: various human and mouse cell lines; test: Toxicity of the test solution on cell lines; format: cell-based; conditions: test solution (2 mg COAM in 100 μl 0.9% NaCl)
[2] = target: T1, mouse granulocyte chemotactic protein-2 (mGCP-2) (Mus musculus, UniProt P50228); test: Chemokine binding in solution, gel filtration chromatography with ELISA of fractions
T1 sequence (P50228 41-132): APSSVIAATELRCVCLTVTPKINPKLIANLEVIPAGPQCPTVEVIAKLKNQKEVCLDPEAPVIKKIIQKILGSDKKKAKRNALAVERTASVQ
Procedure: The COAM preparation was incubated with 50 nanogram mouse GCP-2 and the mixture was analysed by gel filtration chromatography (lower figure) and the presence of GCP-2 in the column fractions was analysed with a sensitive ELISA for mouse GCP-2.
(§1) COAM alone, mGCP-2 or COAM incubated in the presence of mGCP-2 were separated by classical gel filtration chromatography. The elution fractions were collected and the presence of mGCP-2 was determined in the elution fractions by ELISA specific for mGCP-2. […] Since COAM itself is a mixture of polymers with different lengths, we fractioned first COAM in three fractions and then repeated the mGCP-2 binding and chromatographic analysis (as described above) with the high molecular weight COAM (high MW COAM) and mGCP-2. […] This is illustrated in FIG. 2.

[3] = target: T2, human interleukin-8/CXCL8 (IL-8/CXCL8) (Homo sapiens, UniProt P10145); test: Chemokine binding in solution, gel filtration chromatography; conditions: 500 ng IL-8/CXCL8; free IL-8 eluted at low molecular masses
T2 sequence (P10145 21-99): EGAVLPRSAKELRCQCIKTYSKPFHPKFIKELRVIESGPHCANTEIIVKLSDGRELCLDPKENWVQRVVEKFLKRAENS
Procedure: as §1
In a second set of experiments human 500 ng interleukin-8/CXCL8 (IL-8/CXCL8) was tested.

[4] = target: human monocyte chemotactic protein-1/CCL2 (MCP-1/CCL2) (Homo sapiens, UniProt P13500); test: as above; conditions: 500 ng MCP-1/CCL2; free MCP-1 eluted at low molecular weight
Procedure: as §1
In a third set, 500 ng human monocyte chemotactic protein-1/CCL2 (MCP-1/CCL2) was tested. Again, free MCP-1 eluted at low molecular weight, compatible with the relative size of MCP-1. […] This is again compatible with its binding to COAM

[5] = target: T3, synthetic human IP-10/CXCL10 (Homo sapiens, UniProt P02778); test: as above; conditions: no separate IP-10 result printed
T3 sequence (P02778 22-98): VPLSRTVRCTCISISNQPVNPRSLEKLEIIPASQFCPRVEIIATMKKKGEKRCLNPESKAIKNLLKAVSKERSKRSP
Source text: In a fourth example, we used synthetic human IP-10/CXCL10.

[6] = tested on: B16-F1 mouse melanoma tumors; test: Syngeneic B16-F1 melanoma tumors in C57BI6 mice, intratumoral injection; format: in vivo; conditions: for effect on tumor expansion: single intratumoral dose of 100 μg at day 1 post tumor inoculation, COAM, heparin, saline compared
Procedure: We used B16-F1 mouse melanoma tumors in C57BI6 mice. 0.5 million tumor cells were injected intradermally on day 0 as known in the art. In one experiment, control mice were injected with saline on days 1, 8 and 15. The treated group COAM d1 was injected intratumorally with a single dose of 100 μg COAM on day1. The treated group COAM d1, d8, d15 was injected with 100 μg COAM three times intratumorally. […] In some cases the tumor ulcerated.
At day 18, all tumors were excised and their volumes and weights were measured.
In particular, in the FIGS. 5 A, B, C and D, we used heparin as an additional control. […] Heparin is a polyanion and binds chemokines and mimics heparin sulphate proteoglycans. The experiment was repeated as above with a single intratumoral dose of 100 μg COAM, 100 μg heparin and saline control at day 1 post tumor inoculation.

B16-F1 cells = test: B16 melanoma formation in immunocompromised SCID mice; format: in vivo; conditions: 500 000 B16-F1 cells s.c. on day 0
Source text: We used a similar protocol as above in immunocompromised SCID mice. The SCID mice received s.c. 500 000 B16-F1 cells on day 0.

[7] = tested on: CD11b+Gr-1+ cells (neutrophils); test: EAE model: neutrophil mobilization to the peritoneal cavity and infiltration of spinal cord and brain; format: in vivo, mice; conditions: for CD11b^+Gr-1^+ cells in the peritoneal cavity: 2 mg COAM i.p. on day 0 and 7
Procedure: FIG. 9: Mobilization of neutrophils into the peritoneal cavity in response to COAM. Mice were immunized with SCH in CFA and treated with COAM (2 mg) or saline on days 0 and 7. Peritoneal cells were collected on days 5, 9 and 14, or 16 post immunization. […] Data represent three individual experiments taken together; bars represent averages±standard error of the mean of seven or nine mice. (B) Flow cytometric analysis of peritoneal cells of control mice and COAM-treated mice. Cells were stained for the presence of CD11b using FITC-labeled antibodies, and of Gr-1 using PE-labeled antibodies. Numbers indicated on each graph represent percent CD11b^+Gr-1^+ cells. One representative analysis out of 9 is shown.
FIG. 10: Neutrophil infiltration in the spinal cord and brain of COAM-treated mice is reduced compared with saline-treated control mice. […] Data of 3 pooled experiments are shown. Histograms represent averages±SEM. (B) Flow cytometry of cells isolated from the spinal cord and brain on day 16 post immunization of mice treated with COAM (2 mg) or saline on days 0 and 7. Cells were stained for CD11b and Gr-1. Numbers indicated on each graph represent percent CD11b^+Gr-1^+ cells. Each plot represents a staining pattern of pooled cells from 3 mice. Results are representative of three independent experiments with similar results.
(§2) Experimental autoimmune encephalomyelitis was induced in mice (mice were immunized with SCH in CFA) and the groups were randomized. One group was treated with 2 mg COAM intraperitoneally on day 0 and day 7.
Mice were immunized with SCH in CFA on day 0 and treated i.p. with 2 mg COAM or saline on day 0 and 7. Cells were obtained from the peritoneal cavity of saline- and COAM-treated mice on day 5, 9 and 14, 15 or 16 after immunization. Cells were stained with anti-CD11b-FITC and anti-Gr-1-PE antibodies. The proportion of CD11b^+Gr-1^+ cells is shown. Results represent pooled data from 3 experiments and N indicates the total number of mice examined. *p<0.05 between COAM-treated and saline-treated mice (Mann-Whitney U-test).

[8] = tested on: experimental autoimmune encephalomyelitis; test: EAE model: clinical course of active EAE; format: in vivo, SJL/J mice
Procedure: FIG. 11: The clinical course of active EAE is attenuated in COAM-treated mice. SJL/J mice were immunized subcutaneously with syngeneic spinal cord homogenate for induction of EAE. They were treated i.p. with 2 mg COAM (filled boxes) or saline (open boxes) on day 0 (A), day 8 (B) or days 0 and 7 (C) post immunization. The clinical course of EAE in these mice is shown as mean daily group score±sem. The disease parameters are given as an insert. Dead animals were scored 6 from the day of death until the end of the study. Arrows point to the days of COAM administration. *p<0.05; **p<0.01 for comparison with saline-treated group; Wilcoxon test or Chi-square test.
as §2
SJL/J mice were immunized subcutaneously with syngeneic spinal cord homogenate for induction of EAE. They were treated i.p. with 2 mg COAM (filled boxes) or saline (open boxes) on day 0 (A), day 8 (B) or days 0 and 7 (C) post immunization. The clinical course of EAE in these mice is shown as mean daily group score±sem. The disease parameters are given as an insert. Dead animals were scored 6 from the day of death until the end of the study. […]

peritoneal leukocytes = conditions: for neutrophils among peritoneal cells: 2 mg unfractionated COAM i.p.
Procedure: In a first set of in vivo experiments, 2 mg of COAM (unfractionated, solution of 2 mg in 100 μl sterile pyrogen-free 0.9% NaCl) was injected intraperitoneally per mouse and leukocytes were counted and defined at different times after injection of groups of 3-4 mice.

[9] = tested on: Moloney Sarcoma Virus-induced tumor; conditions: IP administration; De Clercq et al. 1972; cited from earlier work
[10] = EAE mice, 2 mg COAM i.p. on days 0 and 7

Sequence of human monocyte chemotactic protein-1/CCL2 (MCP-1/CCL2) (P13500 24-99): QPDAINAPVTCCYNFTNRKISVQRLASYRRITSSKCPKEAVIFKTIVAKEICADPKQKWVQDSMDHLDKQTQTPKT

chlorite-oxidized oxyamylose [COAM]
toxic effect on cell lines [1]: not any toxic effect | elution position of mGCP-2 together with COAM (molecular weight range) ([2]; COAM incubated with mGCP-2, mGCP-2 alone eluted at about 10 kilodaltons): > 50 kilodaltons | binding of mGCP-2 ([2]; in solution, gel filtration, ELISA for mouse GCP-2): GCP-2 binds to COAM in solution | elution of interleukin-8 in the presence of COAM [3]: coeluted with COAM at high relative molecular weight | elution of MCP-1 in the presence of COAM [4]: eluted at the position of the high molecular weight of COAM | chemokine binding, conclusion from results with mGCP-2, IL-8, MCP-1, IP-10 [5]: general chemokine-binding factor | additional effect of three injections instead of one injection ([6]; 100 μg intratumorally d1, d8, d15 versus d1 only): No additional effect | overall mean tumor volume and weights as function of time ([6]; COAM-treated groups (100 μg intratumorally d1, or d1, d8, d15) versus saline): significantly reduced | tumor burden with exclusion of ulcerated open tumors ([6]; COAM-treated groups versus saline): significant effect on tumor burden | spleen weight (readout of systemic inflammation) ([6]; after intratumoral injection, compared with saline and heparin): no overt splenomegaly | tumor volume ([6]; single COAM-treated group (COAM d1 only) versus saline, several experiments combined, p<0.015): significantly reduced | tumor weight ([6]; single COAM-treated group (COAM d1 only) versus saline, several experiments combined, p<0.025): significantly reduced | tumor growth ([6]; single dose of 100 μg COAM intratumorally at Day 1 versus saline, 6 COAM-treated and 5 control mice): significant reduction of tumor growth | effect on tumor expansion [6]: lasting and significant effect | tumor volume ([6]; triple treated COAM versus control group, p<0.030): significantly reduced | tumor weight ([6]; triple treated COAM versus control group, p<0.05): significantly reduced | protection against tumors in an immunocompromised host (B16-F1 cells): protects an immunocompromised host against tumors | mast cell population in the peritoneal cavity [7, 10]: reduced; also recorded: decrease in mast cells | neutrophil recruitment to the peritoneal cavity [7, 10]: increased neutrophil recruitment; also recorded: specific infiltration of neutrophils | CD11b^+Gr-1^+ cells in the peritoneal cavity ([7]; day 5 p.i., N = 8): 322.78 ± 79.43 (N = 8) ×10^4 | CD11b^+Gr-1^+ cells in the peritoneal cavity ([7]; day 9 p.i., N = 9, p<0.05 versus saline): 1210.85 ± 272.05 (N = 9) * ×10^4 | CD11b^+Gr-1^+ cells in the peritoneal cavity ([7]; day 14-16 p.i., N = 5, p<0.05 versus saline): 276.66 ± 67.29 (N = 5) * ×10^4 | neutrophil infiltration into spinal cord and brain ([7]; day 16 post immunization, 2 mg COAM i.p. on days 0 and 7, versus saline): reduced; also recorded: lower percentage of neutrophils | clinical course of active EAE (mean daily group score) ([8]; 2 mg COAM i.p. on day 0, day 8 or days 0 and 7 post immunization, versus saline): attenuated | protection against severe EAE ([8]; two injections of COAM): protect a mammalian host against severe EAE | survival and morbidity of the mice (peritoneal leukocytes; 2 mg unfractionated COAM i.p. per mouse): survived without apparent morbidity | peritoneal cells (peritoneal leukocytes; 2 mg unfractionated COAM i.p. per mouse, within 2 hours, control 126.000 cells): 630.000 cells | neutrophils among peritoneal cells (peritoneal leukocytes; at 4 h): 64.1% | neutrophils among peritoneal cells (peritoneal leukocytes; at 8 h): 70.3% | neutrophils among peritoneal cells (peritoneal leukocytes; within 2 hours, control 2.2%): 18.1% | regression of tumors [9]: not show a regression of tumors

heparin [reference compound]
effect on tumor expansion [6]: some effect in the early phase
